Measured values as given in patent US10995101B2, “2-oxo-thiazole derivatives as A2A inhibitors and compounds for use in the treatment of cancers” (iTeos Therapeutics SA, priority 2017, dated 2021).

Molecular target: A2A receptor (Homo sapiens, UniProt P29274)
Assay: Inhibition of cAMP production in HEK cells
Type: cell-based
Details: HEK-293 cells with A2A receptor
Method: When the A2A receptor is activated, is induces the production of cAMP.
HEK-293 cells with a stable transfection of A2A receptor were bought from PerkinElmer® (# ES-011-C). […] Fresh media without the selection marker was added on the day immediately before the experiment to stop selection pressure.
Stimulation buffer b) mimics the human situation by increasing the amount of albumin present in the assay.
Compounds of the present invention were diluted 100× in either of the buffers depending on the assay performed. […] The total volume of the reaction was 20 μl (10 μl of cells, 5 μl of antagonist and 5 μl of agonist). The reaction was finalized by adding 10 μl of 4× EU-cAMP tracer working solution and 10 μl of 4× ULight-anti-cAMP working solution. The TR-FRET signal was measured after 1 hour using a Spectramax Paradigm (Molecular Devices).

[1] = IC50 (nM) (3 nM NECA as agonist, 0.1% BSA), 3 nM NECA as agonist, 0.1% BSA
[2] = IC50 (nM) (5 nM NECA as agonist, 2% HSA), 5 nM NECA as agonist, 2% HSA
[3] = IC50 (nM) (5 μM Adenosine as agonist, 2.0% HSA), 5 μM Adenosine as agonist, 2.0% HSA

Chain of A2A receptor (P29274 whole entry): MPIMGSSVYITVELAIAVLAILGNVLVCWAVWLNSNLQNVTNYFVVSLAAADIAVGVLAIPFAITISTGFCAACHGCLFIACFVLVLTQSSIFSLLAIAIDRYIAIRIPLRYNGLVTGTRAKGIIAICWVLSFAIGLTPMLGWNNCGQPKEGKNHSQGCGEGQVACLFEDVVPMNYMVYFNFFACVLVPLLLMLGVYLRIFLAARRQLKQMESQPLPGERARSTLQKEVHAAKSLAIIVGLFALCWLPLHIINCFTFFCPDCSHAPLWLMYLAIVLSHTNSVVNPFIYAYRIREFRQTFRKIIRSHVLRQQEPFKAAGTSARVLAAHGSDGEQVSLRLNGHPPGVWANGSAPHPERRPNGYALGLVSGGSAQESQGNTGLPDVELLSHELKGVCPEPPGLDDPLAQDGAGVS

SMILES	IC50 [1] [nM]	IC50 [2] [nM]	IC50 [3] [nM]
Nc1nc2c(sc(=O)n2CCN2CCN(c3cc(OCCCC(=O)O)c(F)cc3F)CC2)c2nc(-c3ccco3)nn12 [Compound 65, 4-(5-(4-(2-(5-amino-8-(furan-2-yl)-2-oxothiazolo[5,4-e][1,2,4]triazolo[1,5-c]pyrimidin-3(2H)-yl)ethyl)piperazin-1-yl)-2,4-difluorophenoxy)butanoic acid]	0.6	27	494
CCOC(=O)COc1cc(N2CCN(CCn3c(=O)sc4c3nc(N)n3nc(-c5ccco5)nc43)CC2)c(F)cc1F [Compound 73, ethyl 2-(5-(4-(2-(5-amino-8-(furan-2-yl)-2-oxothiazolo[5,4-e][1,2,4]triazolo[1,5-c]pyrimidin-3(2H)-yl)ethyl)piperazin-1-yl)-2,4-difluorophenoxy)acetate]	3.4	8	304
Nc1nc2c(sc(=O)n2CCN2CCN(c3ccncc3)CC2)c2nc(-c3ccco3)nn12 [Compound 75, 5-amino-8-(furan-2-yl)-3-(2-(4-(pyridin-4-yl)piperazin-1-yl)ethyl)thiazolo[5,4-e][1,2,4]triazolo[1,5-c]pyrimidin-2(3H)-one]	24	100	–
Nc1nc2c(sc(=O)n2CCN2CCN(c3ccncn3)CC2)c2nc(-c3ccco3)nn12 [Compound 76, 5-amino-8-(furan-2-yl)-3-(2-(4-(pyrimidin-4-yl)piperazin-1-yl)ethyl)thiazolo[5,4-e][1,2,4]triazolo[1,5-c]pyrimidin-2(3H)-one]	5	151	–
CN(C)CCNC(=O)c1cc(N2CCN(CCn3c(=O)sc4c3nc(N)n3nc(-c5ccco5)nc43)CC2)c(F)cc1F [Compound 81, 5-(4-(2-(5-amino-8-(furan-2-yl)-2-oxothiazolo[5,4-e][1,2,4]triazolo[1,5-c]pyrimidin-3(2H)-yl)ethyl)piperazin-1-yl)-N-(2-(dimethylamino)ethyl)-2,4-difluorobenzamide]	117	–	–
Nc1nc2c(sc(=O)n2CCN2CCN(c3cc(O[C@@H]4CNC[C@@H]4F)c(F)cc3F)CC2)c2nc(-c3ccco3)nn12 [Compound 93, 5-amino-3-(2-(4-(2,4-difluoro-5-(((3R,4S)-4-fluoropyrrolidin-3-yl)oxy)phenyl)piperazin-1-yl)ethyl)-8-(furan-2-yl)thiazolo[5,4-e][1,2,4]triazolo[1,5-c]pyrimidin-2(3H)-one]	0.4	–	33
Nc1nc2c(sc(=O)n2CCN2CCN(c3cc(OCC(=O)NCCN4CCOCC4)c(F)cc3F)CC2)c2nc(-c3ccco3)nn12 [Compound 97, 2-(5-(4-(2-(5-amino-8-(furan-2-yl)-2-oxothiazolo[5,4-e][1,2,4]triazolo[1,5-c]pyrimidin-3(2H)-yl)ethyl)piperazin-1-yl)-2,4-difluorophenoxy)-N-(2-morpholinoethyl)acetamide]	1.1	–	30
Nc1nc2c(sc(=O)n2CCN2CCN(c3ccc(OCC(=O)NCCN4CCOCC4)cc3F)CC2)c2nc(-c3ccco3)nn12 [Compound 105, 2-(4-(4-(2-(5-amino-8-(furan-2-yl)-2-oxothiazolo[5,4-e][1,2,4]triazolo[1,5-c]pyrimidin-3(2H)-yl)ethyl)piperazin-1-yl)-3-fluorophenoxy)-N-(2-morpholinoethyl)acetamide]	0.7	–	95
Nc1nc2c(sc(=O)n2CCN2CCN(c3ccc(C(=O)NCCN4CCOCC4)cc3F)CC2)c2nc(-c3ccco3)nn12 [Compound 106, 4-(4-(2-(5-amino-8-(furan-2-yl)-2-oxothiazolo[5,4-e][1,2,4]triazolo[1,5-c]pyrimidin-3(2H)-yl)ethyl)piperazin-1-yl)-3-fluoro-N-(2-morpholinoethyl)benzamide]	0.3	–	205
Nc1nc2c(sc(=O)n2CCN2CCN(c3cc(OC[C@@H](O)CO)c(F)cc3F)CC2)c2nc(-c3ccco3)nn12 [Compound 127, (S)-5-amino-3-(2-(4-(5-(2,3-dihydroxypropoxy)-2,4-difluorophenyl)piperazin-1-yl)ethyl)-8-(furan-2-yl)thiazolo[5,4-e][1,2,4]triazolo[1,5-c]pyrimidin-2(3H)-one]	0.5	–	35
